How the values were obtained:
[1] = tested on: C57 BL/6 or Pmel-1 mouse lymph node lymphocytes; assay: [3H] thymidine incorporation assay of stimulated lymph node lymphocytes; format: cell-based; details: lymphocytes stimulated with anti-CD3 and anti-CD28 mAb or gp100 peptide, 72 hours; FIG. 1A
Description: As has been well established, mTOR inhibitors have immune suppressing activity. For the [3H] thymidine incorporation assay, lymph nodes were harvested from naïve C57 BL/6 or Pmel-1 mouse, 3×10^5 cells/well were cultured in 96-well plates and stimulated, with or without mTOR inhibitors, for 72 hours. C57 BL/6 lymphocytes were stimulated with anti-CD3 and anti-CD28 mAb, and Pmel-1 lymphocytes were stimulated with […]. DNA synthesis was determined by incubation for 16 h with 1 μCi [3H]thymidine (Amersham Biosciences, Piscataway, N.J., USA).

CD4+FoxP3+ lymphocytes = assay: in vivo effect on CD4+FoxP3+ lymphocytes (flow cytometry); parameters: species or system B6 mice; details: treated daily for 24 days; FoxP3 staining gated on CD4; FIG. 1B
Description: Further, in vivo effect of temsirolimus on CD4+FoxP3+ lymphocytes was assessed. B6 mice (5 mice per group) were treated daily with temsirolimus for 24 days, 2 doses of vaccine (complex of hsp110 and gp100), or both. FoxP3 staining was quantified with flow cytometry while gating on CD4. […] Representative results are shown from at least 2 independent experiments.

RENCA tumor cells = assay: RENCA tumor re-challenge after treatment (antitumor immune memory); format: in vivo, Balb/c mice; details: re-challenged with 2×10^5 RENCA cells on day 47; tumor size 11 and 18 days after; FIG. 4
Description: Ten days after subcutaneous implantation of 2×10^5 tumor cells, Balb/c mice were treated with temsirolimus (30 ug/mouse daily on days 14 to 34, intraperitoneally) or temsirolimus plus CD4 depleting antibody (intraperitoneal injection of 200 μg of GK1.5 mAb, administered at day 6 and 10). Mice were re-challenged with 2×10^5 RENCA tumor cells on day 47. Naïve mouse group was also challenged with RENCA and served as a control. Tumor size was measured 11 and 18 days after the re-challenge. […] Since the mice were not being actively treated at the time of tumor re-challenge, direct antitumor effects of the therapy cannot account for the effects on tumor growth.

## CO[C@H]1C[C@@H]2CC[C@@H](C)[C@@](O)(O2)C(=O)C(=O)N2CCCC[C@H]2C(=O)O[C@H]([C@H](C)C[C@@H]2CC[C@@H](OC(=O)C(C)(CO)CO)[C@H](OC)C2)CC(=O)[C@H](C)/C=C(\C)[C@@H](O)[C@@H](OC)C(=O)[C@H](C)C[C@H](C)/C=C/C=C/C=C/1C [temsirolimus, Temsirolimus]
[1]
  immune suppressing activity, DNA synthesis by [3H]thymidine incorporation: nearly identical activities
CD4+FoxP3+ lymphocytes
  Foxp3 positive lymphocytes (regulatory T cells): increased
RENCA tumor cells
  tumor growth after re-challenge: grew at the same rate
